System: human CD3+ T cells
Settings: T cells pre-incubated with 0.01 μM to 10 mM AMD3100; harvested after 3 h; anti-fugetactic at lower, fugetactic at higher concentrations
Procedure: For quantitative transmigration assays, purified human CD3^+ T cells (approximately 2×10^4 cells) are added to the upper chamber of a Transwell® insert in each well, to a total volume of 150 μl of Iscove's modified medium. […] To determine the anti-fugetactic concentration of AMD3100, the T cells are incubated with 0.01 μM to 10 mM AMD3100 prior to addition to the chamber. Cells are harvested from the lower chamber after 3 h, and cell counts are performed using a hemocytometer.

SMILES: c1cc(CN2CCCNCCNCCCNCC2)ccc1CN1CCCNCCNCCCNCC1 [AMD3100, 1,1′[1,4-phenylenebis(methylene)]bis [1,4,8,11-tetraazacyclotetradecane]]
- Effect on T cell migration away from tumor cells (anti-fugetactic versus fugetactic): bimodal effect
